One series addresses T1, CMV polymerase (Human cytomegalovirus, UniProt P08546).
T1 construct: made in house; host or cells: recombinant baculovirus-infected SF-9 cells
Nature of the series: modified version of the HCMV polymerase assay (100% DMSO dilution, DTT, different enzyme lot). The series is classed as biochemical. The note with it: for IC50: read-out: IC50. An outline of the steps:
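Baculovirus-expressed HCMV polymerase incorporated 90 nM 3H-dTTP on 6 nM biotinylated poly(dA)-oligo(dT) in HEPES pH 7.5, KCl, MgCl2, BSA, ±2 mM CHAPS, 30 min; streptavidin-SPA read-out, IC50 by regression. In this modified version, compounds were diluted in 100% DMSO, 4.5 mM DTT was added, and a different enzyme lot was used.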

Like-named read-outs stand apart in the source and are kept apart here. A value given as a limit tells only on which side of the number the result lay.

T1 sequence (P08546 whole entry): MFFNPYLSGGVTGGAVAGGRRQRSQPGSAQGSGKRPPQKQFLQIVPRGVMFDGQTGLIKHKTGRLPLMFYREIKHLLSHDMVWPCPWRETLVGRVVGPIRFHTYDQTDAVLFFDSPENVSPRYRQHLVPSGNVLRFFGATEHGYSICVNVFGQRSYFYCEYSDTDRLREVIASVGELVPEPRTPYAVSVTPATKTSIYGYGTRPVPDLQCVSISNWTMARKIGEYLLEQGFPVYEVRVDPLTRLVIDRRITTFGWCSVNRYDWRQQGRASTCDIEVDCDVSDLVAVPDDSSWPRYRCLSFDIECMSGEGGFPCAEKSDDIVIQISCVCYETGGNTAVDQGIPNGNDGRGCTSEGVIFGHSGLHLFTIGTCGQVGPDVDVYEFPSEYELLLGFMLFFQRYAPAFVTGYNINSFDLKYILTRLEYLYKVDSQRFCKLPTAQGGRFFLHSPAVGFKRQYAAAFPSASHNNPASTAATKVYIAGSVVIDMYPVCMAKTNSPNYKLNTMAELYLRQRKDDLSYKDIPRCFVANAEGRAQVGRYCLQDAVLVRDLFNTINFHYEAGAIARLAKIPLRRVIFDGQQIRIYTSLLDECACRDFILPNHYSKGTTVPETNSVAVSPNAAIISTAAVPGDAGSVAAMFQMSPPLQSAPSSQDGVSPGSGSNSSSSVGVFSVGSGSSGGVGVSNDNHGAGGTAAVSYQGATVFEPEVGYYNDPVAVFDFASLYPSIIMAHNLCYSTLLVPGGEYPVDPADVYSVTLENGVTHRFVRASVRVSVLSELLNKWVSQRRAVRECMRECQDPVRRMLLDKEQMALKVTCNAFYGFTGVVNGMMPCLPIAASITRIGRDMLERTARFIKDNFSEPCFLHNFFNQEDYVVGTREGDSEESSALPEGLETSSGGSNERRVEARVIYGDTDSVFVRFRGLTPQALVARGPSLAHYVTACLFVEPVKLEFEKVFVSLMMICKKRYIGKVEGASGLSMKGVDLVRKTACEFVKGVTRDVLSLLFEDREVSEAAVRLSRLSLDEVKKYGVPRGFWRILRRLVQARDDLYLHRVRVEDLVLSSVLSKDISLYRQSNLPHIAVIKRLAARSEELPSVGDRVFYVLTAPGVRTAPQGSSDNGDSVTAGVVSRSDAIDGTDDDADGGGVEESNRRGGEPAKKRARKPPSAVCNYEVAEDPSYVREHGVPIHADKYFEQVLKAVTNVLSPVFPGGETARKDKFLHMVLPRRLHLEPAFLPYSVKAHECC

In turn, `Cc1ccc2c(Cl)cc(S(=O)(=O)NC(c3ccccc3)c3ccccc3)c(O)c2n1` [Example 38, 5-Chloro-N-(diphenylmethyl)-8-hydroxy-2-methyl-7-quinoline-sulfonamide] registered a melting point of 115 to 119 °C. Further, on CMV polymerase (Concentration 6.25 uM, Table 3), the inhibition at 6.25 µM is 36%. Besides, the inhibition at 12.5 µM on CMV polymerase (Concentration 12.5 uM, Table 3) came out at 58%. The inhibition at 25 µM against CMV polymerase (Concentration 25 uM, Table 3) was 62%. The inhibition at 50 µM on CMV polymerase (Concentration 50 uM, Table 3) came out at 96%. Moreover, at CMV polymerase (Concentration 100 uM, Table 3), the inhibition at 100 µM is 97%. The IC50 at CMV polymerase (Table 3) worked out at 10.5 µM.
Regarding `Cc1ccc2c(Cl)cc(S(=O)(=O)NCCCCc3ccccc3)c(O)c2n1` [Example 61, 5-Chloro-8-hydroxy-2-methyl-N-(4-phenylbutyl)-7-quinoline-sulfonamide], the melting point fell in the range of 84 to 86 °C. Further, on CMV polymerase (Concentration 3.13 μM, Table 6), the inhibition at 3.13 µM amounted to 13%. At CMV polymerase (Concentration 6.25 μM, Table 6), the inhibition at 6.25 µM is 15%. For the same compound, on CMV polymerase (Concentration 12.5 μM, Table 6), the inhibition at 12.5 µM stood at 23%. The inhibition at 25 µM against CMV polymerase (Concentration 25 μM, Table 6) came to 30%. Moreover, the inhibition at 50 µM against CMV polymerase (Concentration 50 μM, Table 6) came out at 30%. Further, the inhibition at 100 µM against CMV polymerase (Concentration 100 μM, Table 6) came to 38%. For the same compound, the inhibition at 200 µM against CMV polymerase (Concentration 200 μM, Table 6) turned out to be 51%. Besides, the IC50 at CMV polymerase (Table 6) is above 200 µM.
`Cc1ccc2c(Cl)cc(S(=O)(=O)NCCCc3ccccc3)c(O)c2n1` [Example 34, 5-Chloro-8-hydroxy-2-methyl-N-(3-phenylpropyl)-7-quinoline-sulfonamide] gave a melting point of 131 to 134 °C. The inhibition at 6.25 µM on CMV polymerase (Concentration 6.25 uM, Table 3) worked out at 21%. For the same compound, at CMV polymerase (Concentration 12.5 uM, Table 3), the inhibition at 12.5 µM was 57%. In addition, at CMV polymerase (Concentration 25 uM, Table 3), the inhibition at 25 µM was 63%. Moreover, the inhibition at 50 µM against CMV polymerase (Concentration 50 uM, Table 3) is 54%. Besides, the inhibition at 100 µM at CMV polymerase (Concentration 100 uM, Table 3) turned out to be 97%. Also, the IC50 on CMV polymerase (Table 3) amounted to 17.2 µM.
As to `Cc1ccc2c(Cl)cc(S(=O)(=O)NCCc3ccccn3)c(O)c2n1` [Example 62, 5-Chloro-8-hydroxy-2-methyl-N-[2-(2-pyridinyl)ethyl]-7-quinolinesulfonamide], the melting point was in the range of 153 to 155 °C. In addition, on CMV polymerase (Concentration 3.13 μM, Table 6), the inhibition at 3.13 µM was found to be 1%. Moreover, the inhibition at 6.25 µM on CMV polymerase (Concentration 6.25 μM, Table 6) came out at 3%. Further, the inhibition at 12.5 µM against CMV polymerase (Concentration 12.5 μM, Table 6) amounted to 6%. In addition, on CMV polymerase (Concentration 25 μM, Table 6), the inhibition at 25 µM was found to be 10%. For the same compound, the inhibition at 50 µM on CMV polymerase (Concentration 50 μM, Table 6) turned out to be 14%. In addition, the inhibition at 100 µM against CMV polymerase (Concentration 100 μM, Table 6) amounted to 33%. For the same compound, the inhibition at 200 µM on CMV polymerase (Concentration 200 μM, Table 6) was 42%. Moreover, the IC50 at CMV polymerase (Table 6) is above 200 µM.
For the compound `Cc1ccc2c(Cl)cc(S(=O)(=O)NCCc3ccc(Cl)cc3)c(O)c2n1` [Example 60, 5-Chloro-N-[2-(4-chlorophenyl)ethyl]-8-hydroxy-2-methyl-7-quinolinesulfonamide], the melting point fell in the range of 131 to 133 °C. At CMV polymerase (Concentration 3.13 μM, Table 6), the inhibition at 3.13 µM is 30%. The inhibition at 6.25 µM against CMV polymerase (Concentration 6.25 μM, Table 6) is 19%. Also, at CMV polymerase (Concentration 12.5 μM, Table 6), the inhibition at 12.5 µM is 31%. The inhibition at 25 µM against CMV polymerase (Concentration 25 μM, Table 6) amounted to 32%. Besides, the inhibition at 50 µM against CMV polymerase (Concentration 50 μM, Table 6) was determined as 51%. Besides, at CMV polymerase (Concentration 100 μM, Table 6), the inhibition at 100 µM was found to be 55%. In addition, on CMV polymerase (Concentration 200 μM, Table 6), the inhibition at 200 µM stood at 70%. Moreover, the IC50 on CMV polymerase (Table 6) was found to be 57.4 µM.
Consider `Cc1ccc2c(Cl)cc(S(=O)(=O)NCCCN3CCOCC3)c(O)c2n1` [Example 36, 5-Chloro-8-hydroxy-2-methyl-N-[3-(4-morpholinyl)propyl]-7-quinoline-sulfonamide], for which the melting point is 245 to 257 °C. The inhibition at 3.13 µM on CMV polymerase (Concentration 3.13 uM, Table 3) was -1%. The inhibition at 6.25 µM on CMV polymerase (Concentration 6.25 uM, Table 3) was -3%. The inhibition at 12.5 µM on CMV polymerase (Concentration 12.5 uM, Table 3) is 6%. The inhibition at 25 µM against CMV polymerase (Concentration 25 uM, Table 3) was determined as 0%. At CMV polymerase (Concentration 50 uM, Table 3), the inhibition at 50 µM was 15%. Besides, the inhibition at 100 µM against CMV polymerase (Concentration 100 uM, Table 3) worked out at 3%. The inhibition at 200 µM at CMV polymerase (Concentration 200 uM, Table 3) is 19%. In addition, the IC50 on CMV polymerase (Table 3) is above 200 µM.
Compound `Cc1ccc2c(Cl)cc(S(=O)(=O)NCc3ccccn3)c(O)c2n1` [Example 59, 5-Chloro-8-hydroxy-2-methyl-N-(2-pyridinylmethyl)-7-quinolinesulfonamide] registered a melting point of 185 to 186 °C. Besides, on CMV polymerase (Concentration 3.13 μM, Table 6), the inhibition at 3.13 µM is -7%. Moreover, the inhibition at 6.25 µM on CMV polymerase (Concentration 6.25 μM, Table 6) was -6%. Further, the inhibition at 12.5 µM on CMV polymerase (Concentration 12.5 μM, Table 6) is -3%. The inhibition at 25 µM against CMV polymerase (Concentration 25 μM, Table 6) worked out at 0%. At CMV polymerase (Concentration 50 μM, Table 6), the inhibition at 50 µM was 14%. Further, the inhibition at 100 µM against CMV polymerase (Concentration 100 μM, Table 6) was found to be 31%. For the same compound, the inhibition at 200 µM against CMV polymerase (Concentration 200 μM, Table 6) amounted to 43%. Moreover, the IC50 at CMV polymerase (Table 6) is above 200 µM.
Consider `Cc1ccc2c(Cl)cc(S(=O)(=O)NCCc3ccc(NS(=O)(=O)c4c(C)noc4C)cc3)c(O)c2n1` [Example 65, 5-Chloro-8-hydroxy-2-methyl-N-[2-[4-[[(3,5-dimethyl-4-isoxazolyl)sulfonyl]amino]phenyl]ethyl]-7-quinoline-sulfonamide], for which the melting point was 147 to 152 °C (dec.). The inhibition at 3.13 µM on CMV polymerase (Concentration 3.13 μM, Table 6) is -8%. In addition, the inhibition at 6.25 µM against CMV polymerase (Concentration 6.25 μM, Table 6) is -8%. Besides, the inhibition at 12.5 µM against CMV polymerase (Concentration 12.5 μM, Table 6) is -13%. The inhibition at 25 µM on CMV polymerase (Concentration 25 μM, Table 6) was -21%. Also, the inhibition at 50 µM on CMV polymerase (Concentration 50 μM, Table 6) is -23%. Further, the inhibition at 100 µM at CMV polymerase (Concentration 100 μM, Table 6) was -23%. Further, on CMV polymerase (Concentration 200 μM, Table 6), the inhibition at 200 µM was -8%. Besides, the half-inhibitory concentration (IC50) on CMV polymerase (Table 6) was above 200 µM.
Compound `Cc1ccc2c(Cl)cc(S(=O)(=O)N[C@@H](C)c3ccccc3)c(O)c2n1` [Example 40, (S)-5-Chloro-8-hydroxy-2-methyl-N-(1-phenylethyl)-7-quinolinesulfonamide] yielded a melting point of 83 to 87 °C. For the same compound, at CMV polymerase (Concentration 3.13 uM, Table 3), the inhibition at 3.13 µM worked out at 22%. In addition, the inhibition at 6.25 µM against CMV polymerase (Concentration 6.25 uM, Table 3) came out at 36%. The inhibition at 12.5 µM against CMV polymerase (Concentration 12.5 uM, Table 3) was found to be 47%. The inhibition at 25 µM against CMV polymerase (Concentration 25 uM, Table 3) was 53%. On CMV polymerase (Concentration 50 uM, Table 3), the inhibition at 50 µM was 80%. In addition, the inhibition at 100 µM on CMV polymerase (Concentration 100 uM, Table 3) is 94%. Further, the IC50 on CMV polymerase (Table 3) is 13.7 µM.
For `Cc1ccc2c(Cl)cc(S(=O)(=O)NCCCn3ccnc3)c(O)c2n1` [Example 37, 5-Chloro-8-hydroxy-N-[3-(1H-imidazol-1-yl)propyl]-2-methyl-7-quinolinesulfonamide], the melting point lay in the range of 194 to 196 °C. The inhibition at 6.25 µM against CMV polymerase (Concentration 6.25 uM, Table 3) stood at 3%. Moreover, the inhibition at 12.5 µM against CMV polymerase (Concentration 12.5 uM, Table 3) amounted to 12%. The inhibition at 25 µM against CMV polymerase (Concentration 25 uM, Table 3) was found to be 21%. Also, the inhibition at 50 µM against CMV polymerase (Concentration 50 uM, Table 3) was found to be 50%. Moreover, on CMV polymerase (Concentration 100 uM, Table 3), the inhibition at 100 µM came to 55%. Besides, the IC50 on CMV polymerase (Table 3) was determined as 72.3 µM.
For the compound `Cc1ccc2c(Cl)cc(S(=O)(=O)N[C@H](C)c3ccccc3)c(O)c2n1` [Example 39, (R)-5-Chloro-8-hydroxy-2-methyl-N-(1-phenylethyl)-7-quinolinesulfonamide], the melting point was 84 to 88 °C. Further, on CMV polymerase (Concentration 3.13 uM, Table 3), the inhibition at 3.13 µM was found to be 16%. On CMV polymerase (Concentration 6.25 uM, Table 3), the inhibition at 6.25 µM amounted to 28%. Moreover, on CMV polymerase (Concentration 12.5 uM, Table 3), the inhibition at 12.5 µM is 43%. In addition, the inhibition at 25 µM against CMV polymerase (Concentration 25 uM, Table 3) was determined as 41%. Also, the inhibition at 50 µM against CMV polymerase (Concentration 50 uM, Table 3) stood at 79%. Also, at CMV polymerase (Concentration 100 uM, Table 3), the inhibition at 100 µM worked out at 71%. Also, at CMV polymerase (Concentration 200 uM, Table 3), the inhibition at 200 µM stood at 90%. Also, the 50% inhibitory concentration (IC50) on CMV polymerase (Table 3) was 21.6 µM.
For the compound `Cc1ccc2c(Cl)cc(S(=O)(=O)NCCOc3ccccc3)c(O)c2n1` [Example 35, 5-Chloro-8-hydroxy-2-methyl-N-(2-phenoxyethyl)-7-quinoline-sulfonamide], the melting point is 106 to 107 °C. Further, on CMV polymerase (Concentration 3.13 uM, Table 3), the inhibition at 3.13 µM came to 31%. Besides, at CMV polymerase (Concentration 6.25 uM, Table 3), the inhibition at 6.25 µM was determined as 41%. Besides, on CMV polymerase (Concentration 12.5 uM, Table 3), the inhibition at 12.5 µM was determined as 44%. Besides, at CMV polymerase (Concentration 50 uM, Table 3), the inhibition at 50 µM was 89%. Moreover, the inhibition at 100 µM on CMV polymerase (Concentration 100 uM, Table 3) stood at 96%. Also, the IC50 on CMV polymerase (Table 3) worked out at 10 µM.

For the origin of these results see patent US6500842B1, “8-hydroxy-7-substituted quinolines as anti-viral agents” (Pharmacia & Upjohn Company, priority 1996, dated 2002).
